Test results as given in US20210299079A1, “MONOMETHYL FUMARATE-CARRIER CONJUGATES AND METHODS OF THEIR USE” (Flagship Pioneering Innovations V, Inc., priority 2018, published 2021).
Where a name gives a salt, the structure may show the parent alone.

Key:
[1] = In vitro Colonic Material Stability Assay; assay type: in vitro ADME; settings: colonic material slurry in YCFAC media, anaerobic, 1 or 10 μM
Outline: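 Anaerobically, a colonic material slurry (15% w/v) was inoculated into YCFAC or other suitable media. Compounds were added at 1 or 10 μM final. Samples taken at 0–2880 min were quenched with acetonitrile containing internal standard and analysed by LC/MS.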

[2] = Stability of conjugates in Simulated Gastric Fluid (SGF); assay type: in vitro ADME; settings: SGF pH 1.6 with pepsin, 37° C., 1 μM compound
Outline: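 Compound at 1 μM (from 1 mM DMSO stock) in pH 1.6 NaCl medium with FaSSIF powder and 0.1 mg/mL pepsin, mixed at 37° C. Aliquots quenched with equal volume acetonitrile at T0 and regular intervals; LC/MS gives degradation rate.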

[3] = In Vitro Biotransformation and Detection of Monomethyl Fumarate Assay; assay type: in vitro ADME; settings: FaSSIF with pancreatin pH 6.5, 100 μM compound, 0 h and 2 h, UHPLC-MSMS
Procedure: Stock solution of compound 2 was prepared at 10 mM in DMSO. FaSSIF was made by mixing sodium taurocholate (3.0 mM) Lecithin (0.75 mM), and pancreatin (10 mg/mL) in prepared solution of sodium phosphate monobasic (28.4 mM), sodium hydroxide (8.7 mM), sodium chloride (105.9 mM), pH 6.5. Compound 2, was added to FaSSIF to final concentration of 100 μM. Release of monomethyl fumaric acid (MMF) was monitored via UHPLC-MSMS and comparing the retention time and corresponding fragmentation of released MMF to retention time and fragmentation of a neat solution of MMF that was analyzed separately with the same method described below. Release of MMF was measured at 0 h and 2 h time points. At both time points samples were centrifuged at 14000 rpm for 10 minutes at 4° C. Supernatants were then transferred to HPLC vials and analyzed immediately. The results of this assay are illustrated in FIG. 1.

[4] = Stability of conjugates in Simulated Intestinal Fluid (SIF); assay type: in vitro ADME; settings: SIF pH 6.7 with pancreatin, 37° C., 1 μM compound
Outline: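 Compounds at 1 μM in fresh simulated intestinal fluid: FaSSIF powder in pH 6.7 phosphate buffer with pancreatin. Agitated at 37 °C; aliquots taken at T0 and regular intervals, quenched with 1 volume acetonitrile. Degradation rates determined by LC/MS.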

[5] = male, Sprague Dawley, rat, in vivo, po
Procedure: The amount of compound dosed was normalized to provide approximately equimolar amounts of monomethylfumarate. Approximately 150 μL whole blood samples were collected at 15 and 30 min; and 1, 2, 4, 8, and 24 h post-dosing from the jugular or tail vein. 100 μL of samples were added to K2EDTA tubes pre-filled with 300 μL of 100 mM tiopronin in 100 mM ammonium bicarbonate (pH 9.0). Samples were vortex-mixed for approximately 5 min at ambient temperature in order to trap free fractions of monomethyl fumarate.

[6] = target: T1, AhR (Homo sapiens, UniProt P35869); assay: AhR Activation in Caco-2 Cells Through CYP1A1 mRNA Expression; settings: overnight
T1 sequence (P35869 11-848): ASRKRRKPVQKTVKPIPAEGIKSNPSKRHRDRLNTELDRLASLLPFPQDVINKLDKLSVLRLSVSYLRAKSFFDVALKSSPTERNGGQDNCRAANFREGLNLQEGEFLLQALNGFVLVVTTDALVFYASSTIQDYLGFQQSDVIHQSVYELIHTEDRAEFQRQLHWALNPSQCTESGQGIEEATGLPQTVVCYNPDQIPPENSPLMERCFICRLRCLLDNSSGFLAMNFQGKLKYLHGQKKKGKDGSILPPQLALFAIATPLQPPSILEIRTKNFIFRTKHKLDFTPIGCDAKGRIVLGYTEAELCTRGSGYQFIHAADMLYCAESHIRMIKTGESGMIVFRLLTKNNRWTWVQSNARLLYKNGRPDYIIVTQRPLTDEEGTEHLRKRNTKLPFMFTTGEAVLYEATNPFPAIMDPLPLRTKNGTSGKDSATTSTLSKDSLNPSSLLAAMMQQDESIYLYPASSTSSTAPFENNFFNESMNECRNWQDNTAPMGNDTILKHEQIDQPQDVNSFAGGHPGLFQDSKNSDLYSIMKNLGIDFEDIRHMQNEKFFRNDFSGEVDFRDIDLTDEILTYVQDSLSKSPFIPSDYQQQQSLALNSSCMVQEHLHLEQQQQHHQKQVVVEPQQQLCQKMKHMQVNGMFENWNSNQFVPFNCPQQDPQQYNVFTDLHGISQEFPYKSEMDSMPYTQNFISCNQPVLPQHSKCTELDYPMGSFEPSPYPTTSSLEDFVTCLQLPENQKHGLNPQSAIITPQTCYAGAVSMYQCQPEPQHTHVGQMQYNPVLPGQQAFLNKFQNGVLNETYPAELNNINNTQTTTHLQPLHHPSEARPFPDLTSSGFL
Procedure: Caco-2 cells from American Type Culture Collection (ATCC) were plated in a sterile tissue culture treated 96-well plate (ThermoFisher) at 8.0×10^5 cells per well, and grown overnight at 37° C., 5% CO2 in DMEM complete (Gibco) in order to achieve confluence. After the incubation medium was aspirated off of the Caco-2 monolayers, tissues were then washed with 200 μL of warmed PBS solution, and subsequently 190 μL of pre-warmed growth medium was added to each well. Compounds of interest were diluted at a 20× concentration in growth medium containing 2% DMSO, and 10 μL of compound solutions were added to respective wells in triplicate. Compounds where incubated overnight at 37° C., 5% CO2. 2-(1′H-indole-3′-carbonyl)-thiazole-4-carboxylic acid methyl ester (ITE) was used as the positive control for AhR activation at 1 and 100 μM concentrations. At the end of the incubation, medium was aspirated off of the Caco-2 cells, and washed with 100 μL of cold PBS solution. RNA was extracted via the TaqMan™ Gene Expression Cells-to-CT™ Kit (ThermoFisher) according to the manufacturer's protocol. The QuantStudio 6 Flex (Applied Biosciences) was used to analyze mRNA levels of CYP1A1 using GAPDH as the endogenous control. TaqMan™ probe sets for both genes were acquired from ThermoFisher. Samples were run in triplicate and data was analyzed using the QuantStudio software and reported as linear (Table 6) and log 2(ΔΔCT) values. Statistical analysis was performed using a two-tailed t-test comparing CYP1A1 levels in the presence of each individual compound to the vehicle negative control.

[7] = tested on: naïve CD4+ T cells; assay: Human Regulatory T Cell Differentiation Assay; assay type: cell-based; settings: 6 days; for Treg induction % DMSO: TGF-β; for Cell viability % DMSO: viability dye
Procedure: Peripheral blood mononuclear cells (PBMCs) from whole blood donated by health volunteers were separated by Ficoll-Paque gradient centrifugation and naïve CD4^+ T cells were subsequently isolated using magnet beads (EasySep™ Human Naïve CD4^+ T Cell Isolation Kit, Cambridge, Mass.). For regulatory T cell (Treg) differentiation assay, naïve CD4^+ T cells were cultured (1-10×10^4 cells) in CTS OpTmizer medium for 6 days and stimulated with 5 ng/ml TGF-β, 100 U/ml IL-2, and ImmunoCult™ Human […] T Cell Activator; Stemcell #10990) with/without our Compounds. Cell viability was determined using a viability dye (eBioscience Fixable Viability Dye eFluor 780: ThermoFisher 65-0865-14) at 1:500 dilution. The cells were gated for Treg, defined as Live, CD11c^−, CD14^−, CD19^−, CD8^−, CD4^+, CD3^+, CD25^+, FOXP3^+. Percent (%) Tregs were calculated as percentage of CD4^+, CD25^+, FOXP3^+ cells over total CD4^+ T cells. Statistical analysis was performed with GraphPad Prism Software Using One-Way ANOVA.

[8] = tested on: MIP-1β; assay: Neutrophil Chemokine Production Assay: MIP-1β; assay type: cell-based; settings: human neutrophils, 12 h
Procedure: (§1) A volume 25 mL of human blood was layered over 15 mL of Histopaque®-1077 and centrifuged at 500 g, R^T, for 30 min with no break applied to the centrifuge. The PBMC band and Histopaque®-1077 layer were removed leaving behind the bottom red layer which was mixed with 40 mL of 1× red blood cell (RBC) lysis buffer (Sigma-Aldrich) was and split into two 50 mL tubes. The volume for both fractions was brought to 50 mL with RBC lysis buffer, mixed by inversion, and then incubated at RT for 10 min. Solutions were centrifuged at 250 g, for 10 min at RT and the supernatant liquids removed. The reddish pellets were re-suspended in 1 mL of RBC lysis buffer and combined. The cell suspension was incubated for 5 min at RT in RBC lysis buffer. After incubation 45 mL of Hanks Balanced Salt Solution with no calcium, magnesium or phenol red (HBSS—) was added, the cell suspension was spun (250 g for 10 min at RT), and supernatant liquids were removed. The white pellet was re-suspended in 1 mL of HBSS—, and cell counts were determined. The neutrophil cell suspension was brought to a concentration of 1.11e6 cells/mL in RPMI complete (Sigma-Aldrich), and 180 μL of cell suspension was transferred to all wells within a sterile 96-well tissue culture treated plate resulting in 2.0×10^5 cells/well. […] After incubation, 10 μL of 2 μg/mL LPS solution in RPMI complete was added to each well except for control wells, which received an additional 10 μL of media. Cells were incubated for 12 h (37° C., 5% CO2), after which plates were centrifuged at 250 g, RT, for 5 min and supernatant liquids were obtained and stored at −80° C. until analyzed via Luminex® Multiplex Assay for various chemokines and cytokines. Three data points were acquired from two different blood donors and averaged.

[9] = tested on: IL-8; assay: Neutrophil Chemokine Production Assay: IL-8; assay type: cell-based; settings: human neutrophils, 12 h
Procedure: as §1

[10] = tested on: Caco-2 colonocytes; assay: Human Caco-2 Barrier Integrity Assay, Study 1; assay type: cell-based; settings: Caco-2, + cytokines (TNFα, IFNγ, IL-1β), 48 hours
Procedure: Caco-2 colonocytes were maintained at 37° C. and 5% CO2 in Dulbecco's Modified Eagle Medium (DMEM) and supplemented with 10% FBS, 1% NEAA, 1% penicillin-streptomycin. At 70-80% confluency, cells were trypsinized and seeded in 0.4 cm^2 transwell collagen I coated membranes with supplemented DMEM in both apical and basolateral compartments. […] After 48 hours, TEER readings were taken again and viability was measured by CellTiter 96® AQueous One Solution Cell Proliferation Assay (Promega).

[11] = tested on: MIP-1α; assay: Neutrophil Chemokine Production Assay: MIP-1α; assay type: cell-based; settings: human neutrophils, 12 h
Procedure: as §1

With CCC(=O)O[C@@H]1[C@@H](OC(=O)CC)[C@H](C)O[C@@H](OC(=O)/C=C/C(=O)OC)[C@@H]1OC(=O)CC [Compound 2, Methyl ((2S,3R,4R,5S,6S)-6-methyl-3,4,5-tris(propionyloxy)tetrahydro-2H-pyran-2-yl) fumarate] the “Assay 3 (% Remaining at 24 h)” value [1] was “C (C: >75% of the tested compound remaining)”, the “Assay 1 (SGF) (% Remaining @ 1 hour)” value [2] was “C (C: >75% of the tested compound remaining)” and the “Release of monomethyl fumaric acid (MMF)” value [3] was “actively released”. For the same molecule, the “Assay 2 (SIF) (% @ Remaining 4 hours)” value [4] was “B (B: 25-75% of the tested compound remaining)”.
COC(=O)/C=C/C(=O)OCCN1C(=O)CCC1=O [Diroximel Fumarate, diroximel fumarate] gave an AUClast [5] of 9381 ng·h/mL, a Cmax [5] of 17251 ng/mL and a Tmax [5] of 15 min.
With COC(=O)c1csc(C(=O)c2c[nH]c3ccccc23)n1 [ITE, 2-(1′H-indole-3′-carbonyl)-thiazole-4-carboxylic acid methyl ester, reference compound] the “Average CYP1A1 mRNA levels” value ([6]; Conc. 1.0 μM) was “+++ (+++ = >10-fold Vehicle)”.
In the case of CC(O)CCO (stereo not drawn) [butanediol], the “Average CYP1A1 mRNA levels” value ([6]; Conc. 500.0 μM) is reported as “− (− = <2-fold Vehicle)”.
In the case of O=C(O[C@@H]1Cc2c(O)cc(O)cc2O[C@@H]1c1cc(O)c(O)c(O)c1)c1cc(O)c(O)c(O)c1 [epigallocatechin gallate], the “Treg induction % DMSO” value ([7]; IL-2, 100 nM) is reported as “= (90% > <110%: =)”, the “Treg induction % DMSO” value ([7]; IL-2, 1 μM) is reported as “= (90% > <110%: =)” and the “Cell viability % DMSO” value ([7]; 100 nM) is reported as “= (90% > <110%: =)”. The “Cell viability % DMSO” value ([7]; 1 μM) was “= (90% > <110%: =)”, the “Average CYP1A1 mRNA levels” value ([6]; Conc. 0.1 μM) was “− (− = <2-fold Vehicle)” and the “Average CYP1A1 mRNA levels” value ([6]; Conc. 1.0 μM) was “− (− = <2-fold Vehicle)”. For the same molecule, the “% MIP-1β (DMSO + LPS = 100%)” value ([8]; Conc. 0.1 μM) was “− (− = >90% Vehicle)”, the “% MIP-1β (DMSO + LPS = 100%)” value ([8]; Conc. 1.0 μM) was “− (− = >90% Vehicle)” and the “% IL-8 (Vehicle + LPS = 100%)” value ([9]; Conc. 0.1 μM) was “− (− = >90% Vehicle)”. The “% IL-8 (Vehicle + LPS = 100%)” value ([9]; Conc. 1.0 μM) was “− (− = >90% Vehicle)”, the “% Change in TEER from DMSO” value ([10]; 100 nM) was “− (<125%: −)” and the “% Change in TEER from DMSO” value ([10]; 1 μM) was “− (<125%: −)”. The “% MIP-1α (Vehicle + LPS = 100%)” value ([11]; Conc. 0.1 μM) was “− (− = >90% Vehicle)” and the “% MIP-1α (Vehicle + LPS = 100%)” value ([11]; Conc. 1.0 μM) was “− (− = >90% Vehicle)”.
In the case of c1ccc2[nH]ccc2c1 [indole], the “Average CYP1A1 mRNA levels” value ([6]; Conc. 1000.0 μM) is reported as “+ (+ = >2-fold Vehicle)”.
